These results are taken from US10351553B2, “Potassium channel modulators” (Cadent Therapeutics, Inc., priority 2017, dated 2019).

Structures are written as SMILES. Like-named read-outs stand apart in the source and are kept apart here.

One series concerns harmaline induced tremor. Briefly: Harmaline induced tremor, tremor events by forepaw transmitter band. The series is classed as in vivo, rat. As to the method:
Immediately following harmaline injection, animals were placed in the tremor quantification apparatus and tremor events were quantified for 60 minutes. A tremor event signal was generated when a small metal transmitter band fitted to the right forepaw of the animal moved within the electromagnetic field generated by a loop antenna within the testing apparatus. Outputs from the amplifier were digitized at a sampling rate of 1,000 Hz and the signal was processed and analyzed using LabView software (National Instruments). To minimize signal from ambulatory and grooming behavior, the signal was filtered with a 128-ms unweighted moving average filter, and events with amplitudes>0.5 V and lasting>300 ms in duration were counted as a tremor event. Data were analyzed in one-minute bins over the course of the test and presented as the sum of tremor events over the entire 60 minute test.

A short description of series [1]: Brain concentration by LC-MS from brains harvested after tremor recording. The series is classed as in vivo. The note with it: Sprague Dawley, rat, oral, 30 mg/Kg. Here is the method: The extent to which compounds modulate SK2 channels in vivo is expressed as % SK2 SC100, which is the ratio of the concentration of the drug free in the brain to the measured potency of the compound on the SK2 channel. It is calculated as follows: CFB=CMB×BFF, where CMB is the concentration of compound measured by liquid chromatography mass spectrometry from brains harvested immediately following tremor recording (Table 1, “Measured Brain Concentration”). CFB is the amount of free compound not complexed with protein and therefore free to interact with the SK2 channel (Table 1, “Calculated Free Brain Concentration”). BFF is average free fraction of compound as measured by equilibrium dialysis in separate experiments (1 uM test concentration incubated in 10% rat brain tissue homogenate for 5 hours at 37° C.) (Table 1, “Brain Free Fraction”). Free drug in brain available to interact with SK2 channels (CFB) is arrived at by multiplying the measured total brain level (CMB) by the average free fraction (BFF).
The amount of free compound is then expressed in terms of its potency against the SK2 channel as follows: % SK2 SC100=CFB/SK2 SC100×100, where SK2 SC100 (Table 1, “SK2 SC100”) is the measured value of potency of the compound on SK2 channels and % SK2 SC100 (Table 1, “% SK2 SC100”) is the free brain concentration (CFB) normalized to SK2 SC100.

As for `Cc1ccn(-c2nc(NC3CCC(F)(F)CC3)cc(N3CCOCC3)n2)n1` [Compound 1, N-(4,4-difluorocyclohexyl)-2-(3-methyl-1H-pyrazol-1-yl)-6-morpholinopyrimidin-4-amine], the “Effect on harmaline induced tremor (sum of tremor events over 60 minutes)” value in the series on harmaline induced tremor (30 mg/Kg oral, 30 minutes prior to harmaline, male Sprague Dawley rats, FIG. 1) is reported as “significant inhibition of tremors”. The “Minimally Efficacious Dose” value in the series on harmaline induced tremor (harmaline induced tremor, oral administration) was determined as 30 mg/kg. Further, the concentration at 90 min in series [1] (CFB=CMB×BFF, read-out: Calculated Free Brain Concentration) was 80 nM; in series [1] (brains harvested immediately following tremor recording, minimally efficacious dose, read-out: Measured Brain Concentration) it was 1300 nM.
